pIC50: −log10 of the molar value. Blank lines part the entries; values can stand above or below the compound they belong to.
Tested on: 186277-243-T-J2-PDC multi-cell spheroid viability
Assay: Anticancer human tumor 186277-243-T-J2-PDC patient-derived colon adenocarcinoma cell line growth inhibition [PI3K]
Conditions: for pIC50: curve of first compound; for viability, T/C: stronger effect = lower value
How it was run: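 Viability of mixed-cell spheroids was determined after exposure to pairwise combinations, one partner being inavolisib, alpelisib, duvelisib or copanlisib. Highest tested concentration matched clinical Cmax where known and 10 microM where not, descending in half-log steps.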

[1] = second compound 0.00316 µM, first compound 0.0316 µM
[2] = second compound 0.00316 µM, first compound 0.1 µM
[3] = second compound 0.01 µM, first compound 0.0316 µM
[4] = second compound 0.01 µM, first compound 0.1 µM
[5] = second compound 0.0316 µM, first compound 0.0316 µM
[6] = second compound 0.0316 µM, first compound 0.1 µM
[7] = second compound 0.1 µM, first compound 0.0316 µM
[8] = second compound 0.1 µM, first compound 0.1 µM
[9] = second compound 0.316 µM, first compound 0.0316 µM
[10] = second compound 0.316 µM, first compound 0.1 µM
[11] = second compound 1 µM, first compound 0.0316 µM
[12] = second compound 1 µM, first compound 0.1 µM
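Note: spheroids exposed to compounds for seven days before viability reading.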
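Throughout, for viability, T/C: 100% = DMSO vehicle control viability.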

pIC50 (second compound 0.00316 µM): < 7.00 | pIC50 (second compound 0.01 µM): < 7.00 | pIC50 (second compound 0.0316 µM): 7.24 | pIC50 (second compound 0.1 µM): > 9.50 | pIC50 (second compound 0.316 µM): > 9.50 | pIC50 (second compound 1 µM): > 9.50
SMILES: CC(=O)c1c(C)c2cnc(Nc3ccc(N4CCNCC4)cn3)nc2n(C2CCCC2)c1=O + COc1c(OCCCN2CCOCC2)ccc2c3n(c(=NC(=O)c4cnc(N)nc4)nc12)CCN3
viability, T/C (second compound 0.00316 µM, first compound 0.000316 µM): 101% | viability, T/C (second compound 0.00316 µM, first compound 0.001 µM): 107% | viability, T/C (second compound 0.00316 µM, first compound 0.00316 µM): 97.3% | viability, T/C (second compound 0.00316 µM, first compound 0.01 µM): 94.9% | viability, T/C [1]: 112% | viability, T/C [2]: 113% | viability, T/C (second compound 0.01 µM, first compound 0.000316 µM): 110% | viability, T/C (second compound 0.01 µM, first compound 0.001 µM): 102% | viability, T/C (second compound 0.01 µM, first compound 0.00316 µM): 87.9% | viability, T/C (second compound 0.01 µM, first compound 0.01 µM): 91.7% | viability, T/C [3]: 117% | viability, T/C [4]: 99.5% | viability, T/C (second compound 0.0316 µM, first compound 0.000316 µM): 64.2% | viability, T/C (second compound 0.0316 µM, first compound 0.001 µM): 67.2% | viability, T/C (second compound 0.0316 µM, first compound 0.00316 µM): 68.8% | viability, T/C (second compound 0.0316 µM, first compound 0.01 µM): 58.9% | viability, T/C [5]: 51.3% | viability, T/C [6]: 47.2% | viability, T/C (second compound 0.1 µM, first compound 0.000316 µM): 15.6% | viability, T/C (second compound 0.1 µM, first compound 0.001 µM): 14.4% | viability, T/C (second compound 0.1 µM, first compound 0.00316 µM): 13.9% | viability, T/C (second compound 0.1 µM, first compound 0.01 µM): 17.4% | viability, T/C [7]: 11.6% | viability, T/C [8]: 13.2% | viability, T/C (second compound 0.316 µM, first compound 0.000316 µM): 3.72% | viability, T/C (second compound 0.316 µM, first compound 0.001 µM): 3.94% | viability, T/C (second compound 0.316 µM, first compound 0.00316 µM): 6.08% | viability, T/C (second compound 0.316 µM, first compound 0.01 µM): 4.53% | viability, T/C [9]: 4.8% | viability, T/C [10]: 5.23% | viability, T/C (second compound 1 µM, first compound 0.000316 µM): 3.84% | viability, T/C (second compound 1 µM, first compound 0.001 µM): 2.22% | viability, T/C (second compound 1 µM, first compound 0.00316 µM): 3.44% | viability, T/C (second compound 1 µM, first compound 0.01 µM): 3.39% | viability, T/C [11]: 2.44% | viability, T/C [12]: 1.63%

pIC50 (second compound 0.00316 µM): < 5.00 | pIC50 (second compound 0.01 µM): < 5.00 | pIC50 (second compound 0.0316 µM): < 5.00 | pIC50 (second compound 0.1 µM): > 7.50 | pIC50 (second compound 0.316 µM): > 7.50 | pIC50 (second compound 1 µM): > 7.50
SMILES: CNC(=O)c1ccc(N2C(=S)N(c3ccc(C#N)c(C(F)(F)F)c3)C(=O)C2(C)C)cc1F + COc1c(OCCCN2CCOCC2)ccc2c3n(c(=NC(=O)c4cnc(N)nc4)nc12)CCN3
viability, T/C [1]: 110% | viability, T/C [2]: 113% | viability, T/C (second compound 0.00316 µM, first compound 0.316 µM): 111% | viability, T/C (second compound 0.00316 µM, first compound 1 µM): 88.2% | viability, T/C (second compound 0.00316 µM, first compound 3.16 µM): 112% | viability, T/C (second compound 0.00316 µM, first compound 10 µM): 107% | viability, T/C [3]: 98.8% | viability, T/C [4]: 121% | viability, T/C (second compound 0.01 µM, first compound 0.316 µM): 103% | viability, T/C (second compound 0.01 µM, first compound 1 µM): 94.8% | viability, T/C (second compound 0.01 µM, first compound 3.16 µM): 112% | viability, T/C (second compound 0.01 µM, first compound 10 µM): 115% | viability, T/C [5]: 88.9% | viability, T/C [6]: 85.6% | viability, T/C (second compound 0.0316 µM, first compound 0.316 µM): 81.3% | viability, T/C (second compound 0.0316 µM, first compound 1 µM): 81.7% | viability, T/C (second compound 0.0316 µM, first compound 3.16 µM): 95.3% | viability, T/C (second compound 0.0316 µM, first compound 10 µM): 73.4% | viability, T/C [7]: 23.3% | viability, T/C [8]: 20.2% | viability, T/C (second compound 0.1 µM, first compound 0.316 µM): 21.5% | viability, T/C (second compound 0.1 µM, first compound 1 µM): 17.8% | viability, T/C (second compound 0.1 µM, first compound 3.16 µM): 19.6% | viability, T/C (second compound 0.1 µM, first compound 10 µM): 22.7% | viability, T/C [9]: 6.01% | viability, T/C [10]: 6.73% | viability, T/C (second compound 0.316 µM, first compound 0.316 µM): 4.24% | viability, T/C (second compound 0.316 µM, first compound 1 µM): 5.77% | viability, T/C (second compound 0.316 µM, first compound 3.16 µM): 7.13% | viability, T/C (second compound 0.316 µM, first compound 10 µM): 5.44% | viability, T/C [11]: 3.23% | viability, T/C [12]: 2.22% | viability, T/C (second compound 1 µM, first compound 0.316 µM): 3.19% | viability, T/C (second compound 1 µM, first compound 1 µM): 1.9% | viability, T/C (second compound 1 µM, first compound 3.16 µM): 2.85% | viability, T/C (second compound 1 µM, first compound 10 µM): 4.06%

pIC50 (second compound 0.00316 µM): 7.13 | pIC50 (second compound 0.01 µM): 7.52 | pIC50 (second compound 0.0316 µM): > 8.02 | pIC50 (second compound 0.1 µM): > 8.02 | pIC50 (second compound 0.316 µM): > 8.02 | pIC50 (second compound 1 µM): > 8.02
SMILES: Cn1cnc2c(F)c(Nc3ccc(Br)cc3Cl)c(C(=O)NOCCO)cc21 + COc1c(OCCCN2CCOCC2)ccc2c3n(c(=NC(=O)c4cnc(N)nc4)nc12)CCN3
viability, T/C (second compound 0.00316 µM, first compound 0.00949 µM): 91.7% | viability, T/C (second compound 0.00316 µM, first compound 0.03 µM): 74.6% | viability, T/C (second compound 0.00316 µM, first compound 0.0949 µM): 38.3% | viability, T/C (second compound 0.00316 µM, first compound 0.3 µM): 28.9% | viability, T/C (second compound 0.00316 µM, first compound 0.949 µM): 13.1% | viability, T/C (second compound 0.00316 µM, first compound 3 µM): 7.3% | viability, T/C (second compound 0.01 µM, first compound 0.00949 µM): 81.6% | viability, T/C (second compound 0.01 µM, first compound 0.03 µM): 50% | viability, T/C (second compound 0.01 µM, first compound 0.0949 µM): 24.9% | viability, T/C (second compound 0.01 µM, first compound 0.3 µM): 11.7% | viability, T/C (second compound 0.01 µM, first compound 0.949 µM): 8.98% | viability, T/C (second compound 0.01 µM, first compound 3 µM): 5.03% | viability, T/C (second compound 0.0316 µM, first compound 0.00949 µM): 28.9% | viability, T/C (second compound 0.0316 µM, first compound 0.03 µM): 20.9% | viability, T/C (second compound 0.0316 µM, first compound 0.0949 µM): 13.5% | viability, T/C (second compound 0.0316 µM, first compound 0.3 µM): 8.43% | viability, T/C (second compound 0.0316 µM, first compound 0.949 µM): 3.94% | viability, T/C (second compound 0.0316 µM, first compound 3 µM): 2.23% | viability, T/C (second compound 0.1 µM, first compound 0.00949 µM): 14.6% | viability, T/C (second compound 0.1 µM, first compound 0.03 µM): 7.23% | viability, T/C (second compound 0.1 µM, first compound 0.0949 µM): 5.32% | viability, T/C (second compound 0.1 µM, first compound 0.3 µM): 2.22% | viability, T/C (second compound 0.1 µM, first compound 0.949 µM): 0.6% | viability, T/C (second compound 0.1 µM, first compound 3 µM): 0.24% | viability, T/C (second compound 0.316 µM, first compound 0.00949 µM): 2.44% | viability, T/C (second compound 0.316 µM, first compound 0.03 µM): 1.09% | viability, T/C (second compound 0.316 µM, first compound 0.0949 µM): 1.66% | viability, T/C (second compound 0.316 µM, first compound 0.3 µM): 0.37% | viability, T/C (second compound 0.316 µM, first compound 0.949 µM): 0.45% | viability, T/C (second compound 0.316 µM, first compound 3 µM): 0.11% | viability, T/C (second compound 1 µM, first compound 0.00949 µM): 0.41% | viability, T/C (second compound 1 µM, first compound 0.03 µM): 0.28% | viability, T/C (second compound 1 µM, first compound 0.0949 µM): 0.32% | viability, T/C (second compound 1 µM, first compound 0.3 µM): 0.14% | viability, T/C (second compound 1 µM, first compound 0.949 µM): 0.15% | viability, T/C (second compound 1 µM, first compound 3 µM): 0.18%

Source: PubChem BioAssay AID1963983 (Molecular Pharmacology Branch, DTP, NCI, 2024)
